Literature values, collected in patent publication US20080318335A1, “Transgenic Plant for Detecting Environmental Chemicals” (priority 2005, published 2008).

System: GUS gene
Settings: tobacco including AhR vector; 5 nM 20-methylcholanthrene

20-methylcholanthrene
GUS gene expression: expressed
